Reference: patent US7745446B2, “Pyrazolo[1,5-c]pyrimidines” (Bayer Schering Pharma Aktiengesellschaft, priority 2004, dated 2010)

What was measured:
GST-ΔPH-Akt1 = target: T1, GST-ΔPH-Akt1 (Homo sapiens, UniProt P31749); experiment: Biochemical ΔPH Akt1 assay (flashplate, 33P incorporation into histone 2B); conditions: 100 nM ATP, histone 2B substrate; read-out: ΔPHAkt1 inhibition: IC50
T1 construct: named GST-deltaPH-Akt1; 107-480aa; cloned in the pAcGl vector; GST (N); made in house; host or cells: SF9 insect cells (baculovirus vector pAcG1), co-expressed with PDK1
From the text: For the biochemical assay ΔPHAkt1 is used devoid of its PH domain as a GST fusion protein (named GST-deltaPH-Akt1; 107-480aa; cloned in the pAcGl vector (BD Biosciences Pharmingen)), co-expressed with PDK1 in SF9 insect cells. The protein is purified using glutathion-affinity chromatography by standard protocols.
In order to study the inhibition of Akt according to the invention, a flashplate-based assay has been developed.
The Akt1 assay is a biochemical assay using Akt1 devoid of its PH domain and co-expressed with PDK1 in insect cells. The GST-ΔPH-Akt1 assay is run in 96 well plates by incubating 100 ng/well GST-ΔPH-Akt1, 100 ng/well histone 2B (Roche, #223514) as substrate, 10 μl of compound of invention (test compounds were dissolved as 10 mM solutions in dimethylsulfoxide (DMSO) and subsequently diluted) and 100 nM ATP (including ^33P-ATP) in 100 μl of reaction buffer ([…], pH7,5; 3 mM MgCl2; 3 mM MnCl2; 3 μM Na-Orthovanadat; 1 mM DTT; 1 μg/ml PEG8000) for 80 minutes at 30° C. The reactions are terminated by adding 100 μl stopping buffer (2% H3PO4 for 5 minutes) and are washed 3 times by using washing buffer (0.9% NaCl). Relying on the incorporation of ^33P into the protein substrate histone 2B, the detection is based on the adhesion of the phosphorylated protein to the surface of scintillator-coated flash plates (NEN, USA; #SMP-200). This phosphorylation is measured by counting the plate for 60 sec. using a plate reader (Wallac Microbeta; Perkin Elmer, USA).

PKA = target: T2, PKA (Homo sapiens, UniProt P17612); experiment: Biochemical PKA assay (flashplate); conditions: 100 nM ATP; read-out: PKA inhibition: −log IC50 (converted)
T2 construct: His; purchased PanVera, USA #R3791; host or cells: E. coli
Experimental: For the biochemical PKA assay the catalytic subunit of PKA is expressed in E. coli as a His-tagged human recombinant protein and purified accordingly (PanVera, USA; #R3791).
In order to study the kinase inhibition activity of the compounds according to the invention, a flashplate-based assay has been developed for the serine/threonine kinase, PKA. The assay is run in 96 well plates by incubating 1 ng/well His-PKA (PanVera, USA; #R3791), 0.5 μM/well PKA peptide (#12-394; Upstate, USA) as substrate, 10 μl of compound of invention (test compounds were dissolved as 10 mM solutions in dimethylsulfoxide (DMSO) and subsequently diluted) and 100 nM ATP (including ^33P-ATP) in 100 μl of reaction buffer ([…], pH7,5; 3 mM MgCl2; 3 mM MnCl2; 3 μM Na-Orthovanadat; 1 mM DTT) for 80 minutes at 22° C. The reactions are stopped by adding 100 μl stopping buffer (2% H3PO4 for 5 minutes) and are washed 3 times by using washing buffer (200 μl 1×PBS). Relying on the incorporation of ^33P into the peptide substrate, the detection is based on the adhesion of the phosphorylated peptide to the surface of scintillator-coated Flash plates (Perkin Elmer, USA; #SMP-103). This phosphorylation is measured by counting the plate for 60 sec. using a plate reader (Wallac Microbeta; Perkin Elmer, USA). By using this method the IC50 of the PKA inhibition is determined.

MCF7 cells = experiment: Cellular proliferation/cytotoxicity assay (Alamar Blue), MCF7; conditions: Homo sapiens, MCF7, 48 h, read-out: Anti-proliferative/cytotoxic activity: IC50 MCF7
MDA-MB-468 cells = experiment: Cellular proliferation/cytotoxicity assay (Alamar Blue), MDA-MB-468; conditions: Homo sapiens, MDA-MB-468, 48 h, read-out: Anti-proliferative/cytotoxic activity: IC50 MDA468
Experimental: The anti-proliferative activity of the compounds as described herein, is evaluated using MCF7 and MDA-MB-468 (ATCC HTB-22 and HTB-132) cell lines and the Alamar Blue (Resazurin) cell viability assay (O'Brien et al. Eur J Biochem 267, 5421-5426, 2000). Resazurin is reduced to the fluorescent resorufin by cellular dehydrogenase activity, correlating with viable, proliferating cells. Test compounds are dissolved as 10 mM solutions in DMSO and subsequently diluted. MCF7 or MDA-MB-434 cells were seeded into 96 well flat bottom plates at a density of 10000 cells/well (MCF7) or 5000 cells/well (MDA-MB-468) in a volume of 200 μl/well. 24 hours after seeding, 1 μl each of the compound dilutions are added into each well of the 96 well plates. Each compound dilution is tested as at least as duplicates. Wells containing untreated control cells were filled with 200 μl DMEM containing 0.5% v:v DMSO. The cells are then incubated with the substances for 48 hours at 37° C. in a humidified atmosphere containing 5% carbon dioxide. To determine cell viability, 20 μl of a Resazurin solution (Sigma; 90 mg/l) are added. After 4 hours incubation at 37° C. the fluorescence is measured at an extinction of 544 nm and an emission of 590 nm (Wallac Victor2; Perkin Elmer, USA). For the calculation of the cell viability the emission value from untreated cells is set as 100% viability and the emission rates of treated cells are set in relation to the values of untreated cells. Viabilities are expressed as % values. The corresponding IC50 values of the compounds for cytotoxic activity are determined from the concentration-effect curves by means of non-linear regression. The analysis of the data is performed using a biostatistical program (GraphPad Prism, USA).

T1 sequence (P31749 107-480, stated change not applied): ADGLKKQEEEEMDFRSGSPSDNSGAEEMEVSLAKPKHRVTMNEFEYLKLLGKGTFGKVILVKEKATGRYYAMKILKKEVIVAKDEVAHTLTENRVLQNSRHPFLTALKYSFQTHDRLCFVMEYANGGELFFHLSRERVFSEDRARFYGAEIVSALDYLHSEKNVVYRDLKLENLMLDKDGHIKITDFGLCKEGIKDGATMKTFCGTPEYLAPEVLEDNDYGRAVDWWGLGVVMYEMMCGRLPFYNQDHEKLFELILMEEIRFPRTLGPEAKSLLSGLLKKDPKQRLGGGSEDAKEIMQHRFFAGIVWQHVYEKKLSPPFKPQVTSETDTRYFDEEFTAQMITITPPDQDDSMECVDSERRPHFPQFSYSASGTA

SMILES	IC50 (GST-ΔPH-Akt1) [µM]	IC50 (PKA) [µM]	IC50 (MCF7 cells) [µM]	IC50 (MDA-MB-468 cells) [µM]
NCC(C(=O)Nc1cccc(Nc2nc(-c3cccc4c3oc3ccccc34)cc3ccnn23)c1)c1ccc(Cl)c(Cl)c1 (racemic) [Example 41, rac-3-Amino-N-[3-(5-dibenzofuran-4-yl-pyrazolo[1,5-c]pyrimidin-7-ylamino)-phenyl]-2-(3,4-dichloro-phenyl)-propionamide]	≤ 1.75	> 100	≤ 16.9	≤ 13.6
NCCC(C(=O)Nc1ccc(Nc2nc(-c3cccc4c3oc3ccccc34)cc3ccnn23)cc1)c1ccc(Cl)c(Cl)c1 (racemic) [Example 43, rac-4-Amino-N-[4-(5-dibenzofuran-4-yl-pyrazolo[1,5-c]pyrimidin-7-ylamino)-phenyl]-2-(3,4-dichloro-phenyl)-butyramide]	≤ 1.75	6.31 to 100	≤ 16.9	≤ 13.6
NCc1ccc(C(=O)Nc2ccc(Nc3nc(-c4ccc(-c5ccccc5)cc4)cc4ccnn34)cc2)cc1 [Example 1, 4-Aminomethyl-N-[4-(5-biphenyl-4-yl-pyrazolo[1,5-c]pyrimidin-7-ylamino)-phenyl]-benzamide]	≤ 1.75	> 100	≤ 16.9	≤ 13.6
NCCc1ccc(C(=O)Nc2ccc(Nc3nc(-c4cccc5c4oc4ccccc45)cc4ccnn34)cc2)cc1 [Example 23, 4-(2-Amino-ethyl)-N-[4-(5-dibenzofuran-4-yl-pyrazolo[1,5-c]pyrimidin-7-ylamino)-phenyl]-benzamide]	≤ 1.75	> 100	≤ 16.9	≤ 13.6
NCc1ccc(C(=O)Nc2cccc(Nc3nc(-c4cccc5c4oc4ccccc45)cc4ccnn34)c2)c(F)c1 [Example 27, 4-Aminomethyl-N-[3-(5-dibenzofuran-4-yl-pyrazolo[1,5-c]pyrimidin-7-ylamino)-phenyl]-2-fluoro-benzamide]	≤ 1.75	> 100	≤ 16.9	≤ 13.6
NCc1ccc(C(=O)Nc2ccc(Nc3nc(-c4cccc5c4oc4ccccc45)cc4ccnn34)cc2)c(F)c1 [Example 28, 4-Aminomethyl-N-[4-(5-dibenzofuran-4-yl-pyrazolo[1,5-c]pyrimidin-7-ylamino)-phenyl]-2-fluoro-benzamide]	≤ 1.75	> 100	≤ 16.9	≤ 13.6
NCc1ccc(C(=O)Nc2ccc(Nc3nc(-c4cccc5c4oc4ccccc45)cc4ccnn34)cc2)cn1 [Example 29, 6-Aminomethyl-N-[4-(5-dibenzofuran-4-yl-pyrazolo[1,5-c]pyrimidin-7-ylamino)-phenyl]-nicotinamide]	≤ 1.75	> 100	≤ 16.9	≤ 13.6
NCc1cc(C(=O)Nc2ccc(Nc3nc(-c4cccc5c4oc4ccccc45)cc4ccnn34)cc2)ccn1 [Example 30, 2-Aminomethyl-N-[4-(5-dibenzofuran-4-yl-pyrazolo[1,5-c]pyrimidin-7-ylamino)-phenyl]-isonicotinamide]	≤ 1.75	> 100	–	–
CNCc1ccc(C(=O)Nc2cccc(Nc3nc(-c4cccc5c4oc4ccccc45)cc4ccnn34)c2)cc1 [Example 32, N-[3-(5-Dibenzofuran-4-yl-pyrazolo[1,5-c]pyrimidin-7-ylamino)-phenyl]-4-methylaminomethyl-benzamide]	≤ 1.75	6.31 to 100	≤ 16.9	≤ 13.6
CNCc1ccc(C(=O)Nc2ccc(Nc3nc(-c4cccc5c4oc4ccccc45)cc4ccnn34)cc2)cc1 [Example 33, N-[4-(5-Dibenzofuran-4-yl-pyrazolo[1,5-c]pyrimidin-7-ylamino)-phenyl]-4-methylaminomethyl-benzamide]	≤ 1.75	> 100	≤ 16.9	≤ 13.6
O=C(Nc1cccc(Nc2nc(-c3cccc4c3oc3ccccc34)cc3ccnn23)c1)c1ccc2c(c1)CNCC2 [Example 34, 1,2,3,4-Tetrahydro-isoquinoline-7-carboxylic acid [3-(5-dibenzofuran-4-yl-pyrazolo[1,5-c]pyrimidin-7-ylamino)-phenyl]-amide]	≤ 1.75	6.31 to 100	≤ 16.9	≤ 13.6
CC(C)(N)c1ccc(C(=O)Nc2cccc(Nc3nc(-c4cccc5c4oc4ccccc45)cc4ccnn34)c2)cc1 [Example 40, 4-(1-Amino-1-methyl-ethyl)-N-[3-(5-dibenzofuran-4-yl-pyrazolo[1,5-c]pyrimidin-7-ylamino)-phenyl]-benzamide]	≤ 1.75	6.31 to 100	–	–
N=C(N)Nc1ccc(C(=O)Nc2ccc(Nc3nc(-c4cccc5c4oc4ccccc45)cc4ccnn34)cc2)cc1 [Example 48, N-[4-(5-Dibenzofuran-4-yl-pyrazolo[1,5-c]pyrimidin-7-ylamino)-phenyl]-4-guanidino-benzamide]	≤ 1.75	> 100	–	–
NCc1cccc(C(=O)Nc2ccc(Nc3nc(-c4cccc5c4oc4ccccc45)cc4ccnn34)cc2)n1 [Example 51, 6-Aminomethyl-pyridine-2-carboxylic acid [4-(5-dibenzofuran-4-yl-pyrazolo[1,5-c]pyrimidin-7-ylamino)-phenyl]-amide]	≤ 1.75	> 100	–	–
NCc1ccc(C(=O)Nc2ccc(Nc3nc(-c4ccc(-c5ccccc5)nc4)cc4ccnn34)cc2)cc1 [Example 54, 4-Aminomethyl-N-{4-[5-(6-phenyl-pyridin-3-yl)-pyrazolo[1,5-c]pyrimidin-7-ylamino]-phenyl}-benzamide]	≤ 1.75	6.31 to 100	–	–
CC(=O)Nc1cccc(-c2ccc(-c3cc4ccnn4c(Nc4ccc(NC(=O)c5ccc(CN)cc5)cc4)n3)cc2)c1 [Example 60, N-{4-[5-(3′-Acetylamino-biphenyl-4-yl)-pyrazolo[1,5-c]pyrimidin-7-ylamino]-phenyl}-4-aminomethyl-benzamide]	≤ 1.75	6.31 to 100	–	–
COc1cccc(-c2ccc(-c3cc4ccnn4c(Nc4ccc(NC(=O)c5ccc(CCN)cc5)cc4)n3)cc2)c1 [Example 78, 4-(2-Amino-ethyl)-N-{4-[5-(3′-methoxy-biphenyl-4-yl)-pyrazolo[1,5-c]pyrimidin-7-ylamino]-phenyl}-benzamide]	≤ 1.75	–	≤ 16.9	≤ 13.6
O=C(Nc1ccc(Nc2nc(-c3ccc(-c4cccc([N+](=O)[O-])c4)cc3)cc3ccnn23)cc1)c1ccc2c(c1)CCNC2 [Example 80, 1,2,3,4-Tetrahydro-isoquinoline-6-carboxylic acid {4-[5-(3′-nitro-biphenyl-4-yl)-pyrazolo[1,5-c]pyrimidin-7-ylamino]-phenyl}-amide]	≤ 1.75	–	≤ 16.9	≤ 13.6
NCCc1ccc(C(=O)Nc2ccc(Nc3nc(-c4ccc(-c5cccc([N+](=O)[O-])c5)cc4)cc4ccnn34)cc2)cc1 [Example 81, 4-(2-Amino-ethyl)-N-{4-[5-(3′-nitro-biphenyl-4yl)-pyrazolo[1,5-c]pyrimidin-7-ylamino]-phenyl}-benzamide]	≤ 1.75	–	≤ 16.9	≤ 13.6
O=C(Nc1ccc(Nc2nc(-c3ccc(Br)cc3)cc3ccnn23)cc1)c1ccc2c(c1)CCNC2 [Example 85, 1,2,3,4-Tetrahydro-isoquinoline-6-carboxylic acid {4-[5-(4-bromo-phenyl)-pyrazolo[1,5-c]pyrimidin-7-ylamino]-phenyl}-amide]	≤ 1.75	–	≤ 16.9	≤ 13.6
